Measured values reported in patent US10316017B2, “COT modulators and methods of use thereof” (Gilead Sciences, Inc., priority 2015, dated 2019).

What was measured:
[1] = test system: TNFα production in LPS-stimulated human monocytes; test: Cot Monocyte TNFα Cell Based Assay; conditions: Homo sapiens, Monocyte, TNFα in LPS-stimulated human monocytes; read-out: EC50 TNF
How it was run: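 TR-FRET read-out of total secreted TNFα, normalized as % control (unstimulated = 0%, LPS-stimulated = 100%). Cells (5,000/well) were exposed to compound 1 h at 37 °C, then to 50 pg/ml LPS for a further 4 h.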

[2] = target: T1, human Cot catalytic domain (30-397 amino acids) (Homo sapiens, UniProt P41279); test: High Throughput Cot Biochemical Assay (KinEASE TR-FRET); conditions: Cot KinEASE TR-FRET (HTRF) biochemical assay, 400 μM ATP; read-out: IC50 HTRF
T1 construct: Purified recombinant human Cot catalytic domain (30-397 amino acids) was purchased from Cama Biosciences; purchased Cama Biosciences (so in the source)
How it was run: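 TR-FRET readout: Eu-labeled phospho-specific antibody binds XL665-tagged STK3 peptide after phosphorylation by Cot (aa 30-397, 5 nM). Conditions: 400 μM ATP, 1 μM peptide, MOPS pH 7.0 buffer with MgOAc, DTT, BSA, NP-40, glycerol; 0.1% DMSO.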

T1 sequence (P41279 30-397): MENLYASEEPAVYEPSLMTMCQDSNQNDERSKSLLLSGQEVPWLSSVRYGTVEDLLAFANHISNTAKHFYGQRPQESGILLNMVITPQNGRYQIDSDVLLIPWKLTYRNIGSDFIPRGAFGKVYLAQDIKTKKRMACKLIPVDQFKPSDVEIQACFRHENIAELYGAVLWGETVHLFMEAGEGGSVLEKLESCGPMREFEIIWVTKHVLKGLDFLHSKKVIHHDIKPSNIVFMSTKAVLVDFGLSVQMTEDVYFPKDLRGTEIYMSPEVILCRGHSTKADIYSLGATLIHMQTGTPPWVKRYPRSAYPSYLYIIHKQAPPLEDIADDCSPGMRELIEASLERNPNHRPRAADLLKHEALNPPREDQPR

Compound	EC50 [1] [µM]	IC50 [2] [µM]
[2H][C@](Nc1cc(Cl)c2ncc(C#N)c(NN3CCCCCC3)c2c1)(c1ccc(F)cc1)c1cn(C2CC2)nn1 [Example 177, (S)-4-(azepan-1-ylamino)-8-chloro-6-(((1-cyclopropyl-1H-1,2,3-triazol-4-yl)(4-fluorophenyl)methyl-d)amino)quinoline-3-carbonitrile]	2.46	0.37
[2H][C@](Nc1cc(Cl)c2ncc(C#N)c(N[C@H](COC)c3ccccc3)c2c1)(c1ccc(F)cc1)c1cn(C2CC2)nn1 [Example 181, 8-chloro-6-(((1-cyclopropyl-1H-1,2,3-triazol-4-yl)(4-fluorophenyl)methyl-d)amino)-4-(((S)-2-methoxy-1-phenylethyl)amino) quinoline-3-carbonitrile]	0.348	0.028
[2H][C@](Nc1cc(Cl)c2ncc(C#N)c(N[C@@H](CO)C(C)(C)C)c2c1)(c1ccc(F)cc1)c1cn(C2CC2)nn1 [Example 186, 8-chloro-6-(((S)-(1-cyclopropyl-1H-1,2,3-triazol-4-yl)(4-fluorophenyl)methyl-d)amino)-4-(((R)-1-hydroxy-3,3-dimethylbutan-2-yl)amino)quinoline-3-carbonitrile]	> 10	> 10
[2H][C@](Nc1cc(Cl)c2ncc(C#N)c(N[C@H](CO)C(C)(C)C)c2c1)(c1ccc(F)cc1)c1cn(C2CC2)nn1 [Example 187, 8-chloro-6-(((S)-(1-cyclopropyl-1H-1,2,3-triazol-4-yl)(4-fluorophenyl)methyl-d)amino)-4-(((S)-1-hydroxy-3,3-dimethylbutan-2-yl)amino)quinoline-3-carbonitrile]	0.793	0.085
[2H][C@](Nc1cc(Cl)c2ncc(C#N)c(NC3CCOCC3(C)C)c2c1)(c1ccc(F)cc1)c1cn(C2CC2)nn1 (stereo partly drawn) [Example 190, 8-chloro-6-(((S)-(1-cyclopropyl-1H-1,2,3-triazol-4-yl)(4-fluorophenyl)methyl-d)amino)-4-((3,3-dimethyltetrahydro-2H-pyran-4-yl)amino)quinoline-3-carbonitrile]	0.055	0.003
[2H][C@](Nc1cc(Cl)c2ncc(C#N)c(NCC(Cl)(Cl)Cl)c2c1)(c1ccc(F)cc1)c1cn(C2CC2)nn1 [Example 191, (S)-8-chloro-6-(((1-cyclopropyl-1H-1,2,3-triazol-4-yl)(4-fluorophenyl)methyl-d)amino)-4-((2,2,2-trichloroethyl)amino) quinoline-3-carbonitrile]	0.487	0.056
[2H]C(Nc1cc(Cl)c2ncc(C#N)c(NC(CS(C)(=O)=O)c3ccccc3)c2c1)(c1ccc(F)cc1)c1cn(C2CC2)nn1 (stereo not drawn) [Example 193, 8-chloro-6-(((1-cyclopropyl-1H-1,2,3-triazol-4-yl)(4-fluorophenyl)methyl-d)amino)-4-((2-(methylsulfonyl)-1-phenylethyl)amino) quinoline-3-carbonitrile]	0.833	0.057

Continued by falling EC50 [1], values first:

EC50 [1] [µM]	IC50 [2] [µM]	Compound
4.38	0.154	[2H]C(Nc1cc(Cl)c2ncc(C#N)c(NCC(C)(C)C)c2c1)(c1ccc(F)cc1)c1nnnn1C (stereo not drawn) [Example 184, 8-chloro-6-(((4-fluorophenyl)(1-methyl-1H-tetrazol-5-yl)methyl-d)amino)-4-(neopentylamino) quinoline-3-carbonitrile]
3.59	0.194	[2H][C@](Nc1cc(Cl)c2ncc(C#N)c(NC(CC)c3cnc(F)c(F)c3)c2c1)(c1ccc(F)cc1)c1cn(C2CC2)nn1 (stereo partly drawn) [Example 180, 8-chloro-6-(((S)-(1-cyclopropyl-1H-1,2,3-triazol-4-yl)(4-fluorophenyl)methyl-d)amino)-4-((1-(5,6-difluoropyridin-3-yl)propyl)amino) quinoline-3-carbonitrile]
2.42	0.286	[2H][C@](Nc1cc(C)c2ncc(C#N)c(NCC(C)(C)C)c2c1)(c1ccc(F)cc1)c1cn(C2CC2)nn1 [Example 194, (S)-6-(((1-cyclopropyl-1H-1,2,3-triazol-4-yl)(4-fluorophenyl)methyl-d)amino)-8-methyl-4-(neopentylamino) quinoline-3-carbonitrile]
2.31	0.193	[2H][C@](Nc1cc(Cl)c2ncc(C#N)c(NN3CCCC3)c2c1)(c1ccc(F)cc1)c1cn(C2CC2)nn1 [Example 179, (S)-8-chloro-6-(((1-cyclopropyl-1H-1,2,3-triazol-4-yl)(4-fluorophenyl)methyl-d)amino)-4-(pyrrolidin-1-ylamino)quinoline-3-carbonitrile]
1.41	0.089	[2H][C@@](Nc1cc(Cl)c2ncc(C#N)c(Nc3ccc(Cl)c(Cl)c3F)c2c1)(c1cn(C2CC2)nn1)c1ccccc1Cl [Example 183, (S)-8-chloro-6-(((2-chlorophenyl)(1-cyclopropyl-1H-1,2,3-triazol-4-yl)methyl-d)amino)-4-((3,4-dichloro-2-fluorophenyl)amino)quinoline-3-carbonitrile]
0.674	0.11	[2H][C@](Nc1cc(Cl)c2ncc(C#N)c(NN3CCCCC3)c2c1)(c1ccc(F)cc1)c1cn(C2CC2)nn1 [Example 178, (S)-8-chloro-6-(((1-cyclopropyl-1H-1,2,3-triazol-4-yl)(4-fluorophenyl)methyl-d)amino)-4-(piperidin-1-ylamino) quinoline-3-carbonitrile]
0.203	0.016	[2H][C@](Nc1cc(Cl)c2ncc(C#N)c(N[C@H](C)C(C)(C)C)c2c1)(c1ccc(F)cc1)c1cn(C2CC2)nn1 [Example 188, 8-chloro-6-(((S)-(1-cyclopropyl-1H-1,2,3-triazol-4-yl)(4-fluorophenyl)methyl-d)amino)-4-(((R)-3,3-dimethylbutan-2-yl)amino)quinoline-3-carbonitrile]
0.199	0.011	[2H][C@](Nc1cc(Cl)c2ncc(C#N)c(N[C@@H](c3ccccc3)C3CC3)c2c1)(c1ccc(F)cc1)c1cn(C2CC2)nn1 [Example 185, 8-chloro-4-(((R)-cyclopropyl (phenyl)methyl)amino)-6-(((S)-(1-cyclopropyl-1H-1,2,3-triazol-4-yl)(4-fluorophenyl)methyl-d)amino)quinoline-3-carbonitrile]
0.157	0.01	[2H][C@](Nc1cc(Cl)c2ncc(C#N)c(NC3CCCC3(C)C)c2c1)(c1ccc(F)cc1)c1cn(C2CC2)nn1 (stereo partly drawn) [Example 189]
0.136	0.004	[2H][C@@](Nc1cc(C#N)c2ncc(C#N)c(Nc3ccc(F)c(Cl)c3)c2c1)(c1cn(C2CC2)nn1)c1ccccc1Cl [Example 182, (S)-4-((3-chloro-4-fluorophenyl)amino)-6-(((2-chlorophenyl)(1-cyclopropyl-1H-1,2,3-triazol-4-yl)methyl-d)amino) quinoline-3,8-dicarbonitrile]
0.107	0.003	[2H][C@](Nc1cc(Cl)c2ncc(C#N)c(NCC(C)(C)CCl)c2c1)(c1ccc(F)cc1)c1cn(C2CC2)nn1 [Example 192, (S)-8-chloro-4-((3-chloro-2,2-dimethylpropyl)amino)-6-(((1-cyclopropyl-1H-1,2,3-triazol-4-yl)(4-fluorophenyl)methyl-d)amino)quinoline-3-carbonitrile]
